Experimental findings from the Deep4Chem optical property database are described below.

Each structure is given as a SMILES string.

The data set in a line: photoluminescence quantum yield (fraction); solvent given as SMILES.
Where [1] appears, read: in O=P(c1ccccc1)(c1ccccc1)c1ccccc1Oc1ccccc1P(=O)(c1ccccc1)c1ccccc1.

With `CC(C)(C)c1ccc2c(c1)c1cc(C(C)(C)C)ccc1n2-c1cc(C(=O)c2ccncc2)cc(-n2c3ccc(C(C)(C)C)cc3c3cc(C(C)(C)C)ccc32)c1`, the photoluminescence quantum yield was determined as 0.075 (in Cc1ccccc1) and 0.97 (in c1cc(-c2cccc(-n3c4ccccc4c4ccccc43)c2)cc(-n2c3ccccc3c3ccccc32)c1).
Consider `COc1ccc(C2=[N+]3C(=Cc4c5ccc(OC)cc5c(-c5ccc(OC)cc5)n4[B-]3(F)F)c3ccc(OC)cc32)cc1`, for which the photoluminescence quantum yield (in ClCCl) amounted to 0.49.
Where the note is “in CS(C)=O”, `Cn1c(=O)c(/N=N/c2cc(S(=O)(=O)O)ccc2C(=O)O)c(O)c2ccccc21` registered a photoluminescence quantum yield of 0.06.
The compound `CCCCCCCCCCCCOc1cc(C(=O)Nc2ccc(-c3ccc4c(c3)C(=O)c3ccccc3-4)cc2)cc(OCCCCCCCCCCCC)c1OCCCCCCCCCCCC` gave a photoluminescence quantum yield (in C1CCOC1) of 0.04.
Still for that read-out and setting: to `Oc1ccc(C2=N[N+]3=Cc4c(ccc5ccccc45)O[B-]3(c3ccc([B-]45OC(c6ccc(O)cc6)=N[N+]4=Cc4c(ccc6ccccc46)O5)cc3)O2)cc1` (centres undefined) belongs 0.01.
As for `C/C=C/c1cc(OC)cc(OC)c1`, the photoluminescence quantum yield runs as follows: (in CC#N) 0.05; (in CCCCCC) 0.04.
Take `CN(C)c1ccc(C=C/C=C/C=C/c2ccc(C#N)cc2)cc1`: the photoluminescence quantum yield runs as follows: (in C1CCOC1) 0.112; (in CC#N) 0.261; (in CCCC#N) 0.142; (in CCCCCC) 0.072; (in CCCCOCCCC) 0.081; (in CCO) 0.211. The compound also had a photoluminescence quantum yield (in CCOCC) of 0.092.
In the case of `Cc1cc(C)c(B(c2c(C)cc(C)cc2C)N2c3ccccc3C3(c4ccccc4-c4ccccc43)c3ccccc32)c(C)c1`, the photoluminescence quantum yield by setting is: (in C1CCCCC1) 0.978; (in Cc1ccccc1) 0.942; (in ClCCl) 0.539.
With `C(=C\c1cccc2ccccc12)/c1ncc(-c2ccccc2)o1`, the photoluminescence quantum yield (in ClCCl) was found to be 0.32.
Same read-out and setting: to `COC(=O)c1[nH]c(-c2ccccc2)c2nnc3ccc(OC)cc3c12` belongs 0.0207.
As to `Nc1cccc2cc3ccccc3cc12`, where the note is “in C1CCCCC1”, the photoluminescence quantum yield stood at 0.8.
In the case of `c1ccc(-c2ccc(-c3ccccc3)cc2)cc1`, the photoluminescence quantum yield (in C1COCCO1) was determined as 0.55.
Under setting [1], `CC(C)(C)c1ccc2c(c1)c1cc(C(C)(C)C)ccc1n2-c1ccc(-c2nc(-c3ccc(-n4c5ccc(C(C)(C)C)cc5c5cc(C(C)(C)C)ccc54)cc3)nc(-c3ccc(P(=O)(c4ccccc4)c4ccccc4)cc3)n2)cc1` gave a photoluminescence quantum yield of 0.74.
`Cc1ccc(C2=[N+]3C(=Cc4ccc(C)n4[B-]3(F)F)c3ccccc32)[nH]1`: the photoluminescence quantum yield stood at 0.81 (in C1CCOC1); 0.8 (in CC#N); 0.83 (in CCCCCC); 0.83 (in CO); 0.78 (in Cc1ccccc1); 0.79 (in ClCCl).
With `CN(c1ccccc1)c1ccc(/C=C2\C(=O)c3ccccc3S2(=O)=O)cc1`, the photoluminescence quantum yield reads like this: (in C1CCOC1) 0.003; (in C1COCCO1) 0.012; (in CC#N) 0.002; (in CC(C)=O) 0.001; (in CCOC(C)=O) 0.003; (in CN(C)C=O) 0.003. Moreover, the photoluminescence quantum yield is, setting by setting: (in CO) 0.012; (in CS(C)=O) 0.018; (in Cc1ccccc1) 0.103; (in ClC(Cl)Cl) 0.008; (in ClCCl) 0.004.
Compound `N#Cc1c(N2c3ccccc3C(c3ccccc3)(c3ccccc3)c3ccccc32)cccc1N1c2ccccc2C(c2ccccc2)(c2ccccc2)c2ccccc21` returned a photoluminescence quantum yield (in Cc1ccccc1) of 0.67.
As to `COC(=O)c1cc(=O)n(C)c2cc(-c3cccc(N(C)C)c3)sc12`, the photoluminescence quantum yield turned out to be 0.03 (in CC#N) and 0.01 (in ClCCl).
For `c1ccc(-c2nnc(-c3ccc(N4c5ccccc5N(c5ccccc5)c5ccccc54)cc3)o2)cc1`, the photoluminescence quantum yield runs as follows: (in Cc1ccccc1) 0.12; (in c1cc(-n2c3ccccc3c3ccccc32)cc(-n2c3ccccc3c3ccccc32)c1) 0.45.
Consider `COc1ccc(-c2cc3c(o2)=CC2=Cc4cc5oc(-c6ccc(OC)cc6)cc5n4[B-](F)(F)[N+]=32)cc1`, for which the photoluminescence quantum yield reads like this: (in C1CCOC1) 0.83; (in CC#N) 0.85; (in CCO) 0.77; (in CO) 0.77; (in Cc1ccccc1) 0.87; (in ClC(Cl)Cl) 0.86.
Turning to `COc1ccc(C2=C/C(=C\c3ccccc3)C(=O)N2)cc1OC`, for the setting “in C1COCCO1”, the photoluminescence quantum yield was 0.108.
In turn, `O=Cc1cc2c(cc3ccc4cccc5ccc2c3c45)[nH]1` yielded a photoluminescence quantum yield (in CCOC(C)=O) of 0.61.
Turning to `CC[N+]1(CC)CN2C(=N1)C(C(=O)O)=Cc1cc(F)ccc12`, the photoluminescence quantum yield (in O) stood at 0.344.
For the compound `CCCCc1cc(CCCC)c2ccc3c(CCCC)cc(CCCC)c4ccc1c2c43`, the photoluminescence quantum yield is 0.55 (in CCCCCC), 0.67 (in CO) and 0.61 (in ClCCl).
Regarding `Cc1ccc(CN(Cc2ccc(C)cc2)c2nc(C#N)c(N(Cc3ccc(C)cc3)Cc3ccc(C)cc3)nc2C#N)cc1`, the photoluminescence quantum yield (in ClC(Cl)Cl) turned out to be 0.69.
Where the note is “in Cc1ccccc1”, `COc1ccccc1-c1nc2c3ccccc3c3ccccc3c2o1` yielded a photoluminescence quantum yield of 0.53.
`Fc1ccc(C#Cc2cc(C#Cc3ccc(F)cc3)c(C#Cc3ccc(F)cc3)c(C#Cc3ccc(F)cc3)c2C#Cc2ccc(F)cc2)cc1`: for the setting “in ClCCl”, the photoluminescence quantum yield worked out at 0.43.
`Cc1ccc(C(=O)c2c(C)c3ccc4cccc5c6cccc7ccc2c(c76)c3c45)cc1` yielded a photoluminescence quantum yield (in ClCCl) of 0.039.
As to `CCCCN1C(=O)c2cccc3c(C#CC#Cc4ccc5c6c(cccc46)C(=O)N(CCCC)C5=O)ccc(c23)C1=O`, the photoluminescence quantum yield (in ClCCl) is 0.81.
On to `CN(C)c1ccc(/C=C/C=N/N=C/c2ccc3ccc4cccc5ccc2c3c45)cc1`, for which the photoluminescence quantum yield is, setting by setting: (in CC#N) 0.032; (in CC(C)(C)O) 0.02; (in CC(C)=O) 0.01; (in CC(C)O) 0.015; (in CCCCO) 0.018; (in CO) 0.025. Also, the photoluminescence quantum yield is, setting by setting: (in CS(C)=O) 0.044; (in ClC(Cl)Cl) 0.007; (in ClCCl) 0.008; (in O) 0.016.
With `COC(=O)C(NC(=O)OC(C)(C)C)c1ccc2oc(-c3cc(OC)c(OC)cc3OC)nc2c1` (centres undefined), the photoluminescence quantum yield by setting is: (in CC1CCCCC1) 0.58; (in CC#N) 0.79; (in CO) 0.81.
For the setting “in Cc1ccccc1”, `CC1(C)c2ccccc2N(c2ccc(C(=C(C#N)C#N)c3ccc(N4c5ccccc5C(C)(C)c5ccccc54)cc3)cc2)c2ccccc21` returned a photoluminescence quantum yield of 0.0171.
On to `CCC1=C(C)c2cc3c(OC)cc(OC)cc3c(=O)n2C1=O`, for which the photoluminescence quantum yield is, setting by setting: (in CC#N) 0.54; (in CO) 0.44; (in CS(C)=O) 0.6; (in ClC(Cl)Cl) 0.6.
Consider `F[B-]1(F)OC(c2ccc(C(F)(F)F)cc2)=Cc2c3ccccc3cc[n+]21`, for which the photoluminescence quantum yield (in ClC(Cl)Cl) was 0.026.
Regarding `F[B-]1(F)n2c(cc3c4ccccc4c4ccccc4c32)-c2ccc3ccccc3[n+]21`, the photoluminescence quantum yield (in ClCCl) was found to be 0.9.
Take `c1ccc2c(c1)c1ccccc1n2-c1ccc(-c2ccc(-n3c4ccccc4c4ccccc43)nc2-n2c3ccccc3c3ccccc32)nn1`: for the setting “in Cc1ccccc1”, the photoluminescence quantum yield came to 0.35.
With `COC(=O)/C=C/C1=CC2=C(c3c(C)cc(C)cc3C)c3cccn3[B-](F)(F)[N+]2=C1`, the photoluminescence quantum yield (in ClCCl) stood at 0.34.
Consider `CCCCC(CC)Cn1c2cc(C#N)ccc2c2ccc(C#N)cc21` (centres undefined), for which the photoluminescence quantum yield (in ClCCl) worked out at 0.3.
`O=c1c2ccccc2[nH]c2ccccc12`: the photoluminescence quantum yield (in CS(C)=O) turned out to be 0.75.
On to `CC(=O)c1c2c(c(C(C)=O)c3c1OC(CC(=O)O)O3)OCO2`, for which, where the note is “in CC#N”, the photoluminescence quantum yield came to 0.43.
Compound `Cc1ccc(C2=C3C=C(I)C=[N+]3[B-](F)(F)n3cccc32)cc1` came in with a photoluminescence quantum yield (in C1CCCCC1) of 0.034; a photoluminescence quantum yield (in CC#N) of 0.008; a photoluminescence quantum yield (in CCO) of 0.01; a photoluminescence quantum yield (in CCOC(C)=O) of 0.011; a photoluminescence quantum yield (in CO) of 0.008; a photoluminescence quantum yield (in OCC(F)(F)F) of 0.009.
`CCCCOC(=O)c1cc(Oc2ccc(OC)cc2)c2c3c(Cl)cc4c5c(cc(Cl)c(c6c(Oc7ccc(OC)cc7)cc(C(=O)OCCCC)c1c26)c53)C(=O)N(c1c(C(C)C)cccc1C(C)C)C4=O` had a photoluminescence quantum yield (in Cc1ccccc1) of 0.55.
`C(=C1c2ccccc2CCc2ccccc21)c1ccc(-c2ccc(C=C3c4ccccc4CCc4ccccc43)cc2)cc1` registered a photoluminescence quantum yield (in C1CCOC1) of 0.0033.
`CCOC(=O)c1nn(-c2ccc(OC)cc2)nc1N1CCCC1` came in with a photoluminescence quantum yield (in CC#N) of 0.731.
Consider `c1ccc2c(c1)Oc1ccccc1N2c1ccc2c(c1)c1ccccc1n1c3ccccc3nc21`, for which, under setting [1], the photoluminescence quantum yield stood at 0.8.
Turning to `CCN(CC)c1ccc2c(-c3ccccc3C(=O)O)c3c([o+]c2c1)/C(=C/Nc1ccccc1)CCC3`, the photoluminescence quantum yield (in CCO) was 0.35, the photoluminescence quantum yield (in ClC(Cl)Cl) was 0.35 and the photoluminescence quantum yield (in ClCCl) amounted to 0.6.
Consider `COc1cc(OC)cc(-c2ccc(C3=CC(c4ccccc4)=C(c4ccccc4)C3)cc2)c1`, for which the photoluminescence quantum yield (in ClCCl) is 0.0575.
Same read-out and setting: as for `Cc1ccc2nc3cc4c5c(cccc5c3nc2c1)C(c1ccccc1)=C(c1ccccc1)O4`, the figure is 0.37.
Turning to `CCC1(CC)c2cc(C=O)ccc2-c2ccc(N(C)C)cc21`, the photoluminescence quantum yield by setting is: (in C1CCCCC1) 0.02; (in CC#N) 0.81; (in CCO) 0.64; (in CCOCC) 0.71; (in CS(C)=O) 0.92; (in ClCCl) 0.91. This compound also returned a photoluminescence quantum yield (in c1ccccc1) of 0.82.
